Reference: patent US20040127537A1 (priority 2002, published 2004)
Values belong to the molecule of their own block, whether it stands above or below them.

Tests used:
[1] = Example 6: solubility of buffers in PEG 600/water solvent liquid; assay type: physicochemical; conditions: solvent liquid 65% PEG 600 and 35% water, room temperature
[2] = Example 1: stability of parecoxib sodium in candidate solubilizers (valdecoxib formed, HPLC); assay type: physicochemical; conditions: 40 mg/ml f.a.e., 70° C., 7 days, FIG. 1
Procedure: Formulations were prepared and sealed in Type I vials. […] Valdecoxib formed was calculated as a percentage of parecoxib initially present.

[3] = Example 2: stability of parecoxib sodium in solvent liquids with different solubilizers; assay type: physicochemical; conditions: 55° C., 3 days, FIG. 2
Procedure: (§1) The procedure was similar to that of Example 1. Valdecoxib formed was calculated as a percentage of parecoxib initially present.

[4] = Example 6: buffer capacity titration of parecoxib sodium formulations with added buffer; assay type: physicochemical; conditions: for Improvement in buffer capacity: parecoxib sodium 40 mg/ml f.a.e., acid to adjust pH 8.5 to 7.4, with versus without buffer; for effect of added buffer on buffer capacity: parecoxib sodium formulations tested, PEG 600/WFI
Procedure: The amount of titrant used to titrate each parecoxib sodium/buffer solution was compared with that required to titrate a parecoxib solution without buffer. Percent improvement in buffer capacity was determined by comparing the amount of acid required to adjust pH from 8.5 to 7.4 in the presence versus absence of buffer.

[5] = Example 4: storage stability of liquid formulations LF1-LF9 (valdecoxib formed, HPLC); assay type: physicochemical; conditions: PEG/water formulations of Example 4 (PEG 300, 400, 600)
Procedure: Each vial was flushed with nitrogen gas prior to stoppering.
Valdecoxib was measured by HPLC and was calculated as a percentage of parecoxib initially present.

[6] = Example 3: stability of parecoxib sodium in PEG-containing solvent liquids; assay type: physicochemical; conditions: 70° C., 7 days, FIG. 3
Procedure: as §1

COX-1 = COX-1 (Homo sapiens, UniProt P23219); conditions: cited from earlier work
[7] = conversion of parecoxib to valdecoxib after parenteral administration; assay type: in vivo; conditions: human subject
Excerpt: The term “equal” in this context means equal in molar amount or in absolute amount (i.e., in weight).

[8] = precipitation of parecoxib free acid on downward pH drift of composition; assay type: physicochemical; conditions: parecoxib salt composition, downward pH drift on storage
Excerpt: Presence of precipitated parecoxib free acid in a parenteral composition is undesirable as it can cause local pain and irritation upon injection.

[9] = cited from earlier work

Chain of COX-1 (P23219 24-599): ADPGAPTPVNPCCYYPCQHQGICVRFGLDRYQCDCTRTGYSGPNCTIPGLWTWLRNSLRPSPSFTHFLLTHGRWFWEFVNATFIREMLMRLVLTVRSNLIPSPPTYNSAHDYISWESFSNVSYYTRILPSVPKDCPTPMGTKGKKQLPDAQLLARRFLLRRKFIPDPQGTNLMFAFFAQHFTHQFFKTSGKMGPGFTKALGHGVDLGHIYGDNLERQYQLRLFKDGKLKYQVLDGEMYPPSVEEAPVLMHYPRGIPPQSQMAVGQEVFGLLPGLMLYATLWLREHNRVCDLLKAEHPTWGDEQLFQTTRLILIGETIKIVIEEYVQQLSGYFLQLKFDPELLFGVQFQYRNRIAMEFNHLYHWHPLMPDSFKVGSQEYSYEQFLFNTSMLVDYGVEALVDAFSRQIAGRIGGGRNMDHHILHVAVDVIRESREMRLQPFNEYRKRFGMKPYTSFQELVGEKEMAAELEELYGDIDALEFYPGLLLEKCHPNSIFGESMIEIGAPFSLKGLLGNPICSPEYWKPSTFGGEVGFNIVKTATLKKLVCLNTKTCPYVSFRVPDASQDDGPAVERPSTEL

Solubility > 0.01 M [1]: no
Structure (SMILES): N[C@@H](Cc1c[nH]cn1)C(=O)O [histidine]

Structure (SMILES): CCC(=O)NS(=O)(=O)c1ccc(-c2c(-c3ccccc3)noc2C)cc1 [parecoxib sodium]
valdecoxib formed (stability) ([2]; PEG 300, DMAC, 95% ethanol or 10 mM phosphate buffer pH 8.1 versus propylene glycol): less valdecoxib was formed
conversion of parecoxib to valdecoxib ([2]; in presence of glycerin): very rapid
stability (valdecoxib formed) ([3]; propylene glycol containing solvent liquids): less so
stability (valdecoxib formed) ([3]; solvent liquids comprising PEG 300, ethanol or DMAC, with or without water): stable
conversion to valdecoxib ([3]; solvent liquids comprising glycerin): significant conversion to valdecoxib
buffering effect of parecoxib sodium itself ([4]; less concentrated PEG solutions): weaker buffering effect
buffering effect of parecoxib sodium itself ([4]; more highly concentrated PEG solutions): excellent buffer
parecoxib sodium stability as a function of PEG molecular weight [5]: increases with increasing PEG molecular weight
stability (valdecoxib formed) ([6]; 65% PEG 300, PEG 400 or PEG 600 in water): acceptably stable
valdecoxib formed, comparison of PEG grades ([6]; 65% PEG 600 or PEG 400 versus 65% PEG 300 in water): less valdecoxib formed

Structure (SMILES): CC(=O)[O-].[Na+] [sodium acetate]
Improvement in buffer capacity ([4]; PEG 600/WFI 55/45 % by weight): negligible
Improvement in buffer capacity ([4]; PEG 600/WFI 65/35 % by weight): negligible

Improvement in buffer capacity ([4]; PEG 600/WFI 65/35 % by weight): 14-37%^1
effect of added buffer on buffer capacity [4]: further improved buffer capacity
Structure (SMILES): O=C1O[C@H]([C@@H](O)CO)C([O-])=C1O.[Na+] [sodium ascorbate]

Improvement in buffer capacity ([4]; PEG 600/WFI 55/45 % by weight): negligible
Improvement in buffer capacity ([4]; PEG 600/WFI 65/35 % by weight): negligible
Structure (SMILES): NCC(=O)O [glycine]

Structure (SMILES): CCC(=O)NS(=O)(=O)c1ccc(-c2c(-c3ccccc3)noc2C)cc1 [parecoxib, N-[[4-(5-methyl-3-phenylisoxazol-4-yl)phenyl]sulfonyl]propanamide]
in vitro inhibitory activity against COX-1 (COX-1): weak in vitro inhibitory activity
conversion to valdecoxib after parenteral administration [7]: rapidly and completely converted to valdecoxib
pH of the composition below which parecoxib precipitates in free acid form [8]: below 7.4

Structure (SMILES): Cc1onc(-c2ccccc2)c1-c1ccc(S(N)(=O)=O)cc1 [valdecoxib]
in vitro inhibitory activity against COX-1 (COX-1): weak inhibitor
solubility in water [9]: about 10 μg/ml

Structure (SMILES): O=C([O-])/C=C\C(=O)[O-].[Na+].[Na+] [sodium maleate]
Improvement in buffer capacity ([4]; PEG 600/WFI 65/35 % by weight): 21%
effect of added buffer on buffer capacity [4]: further improved buffer capacity

Improvement in buffer capacity ([4]; PEG 600/WFI 55/45 % by weight): 229%
Improvement in buffer capacity ([4]; PEG 600/WFI 65/35 % by weight): 63%
effect of added buffer on buffer capacity [4]: further improved buffer capacity
Solubility > 0.01 M [1]: yes
Structure (SMILES): NC(CO)(CO)CO [tris, 2-amino-2-(hydroxymethyl)-1,3-propanediol]

Structure (SMILES): N=C(N)NCCC[C@H](N)C(=O)O [L-arginine]
Improvement in buffer capacity ([4]; PEG 600/WFI 65/35 % by weight): negligible

Structure (SMILES): CC(O)C(=O)[O-].[Na+] (stereo not drawn) [sodium lactate]
Improvement in buffer capacity ([4]; PEG 600/WFI 65/35 % by weight): negligible
